Data reported in ChEMBL document CHEMBL5113383, “Application of the All-Hydrocarbon Stapling Technique in the Design of Membrane-Active Peptides” (J Med Chem, 2022).
≈ marks a conversion by molar mass, not a printed value. Positions of bridges follow the written chain, without caps; N, C: chain ends. Non-standard residues stand in square brackets, D forms with d. Residues, ends and D or L forms follow the SMILES beside them. S5 = C=CCCC[C@](C)(N)C(=O)O; Nle = CCCC[C@H](N)C(=O)O

Tests used:
[1] = Hemolytic activity in human erythrocytes incubated for 30 mins; format: toxicity, cell-based, Erythrocyte
Nakaseomyces glabratus [2] = assay: Antimicrobial activity against Candida glabrata 896; format: functional
Candida tropicalis [3] = assay: Antimicrobial activity against Candida tropicalis ATCC 20026; format: functional
Candida parapsilosis = assay: Antimicrobial activity against Candida parapsilosis ATCC 22010; format: functional; conditions: Lodderomyces parapsilosis
Pichia kudriavzevii = assay: Antimicrobial activity against Candida krusei ATCC 2340; format: functional
Candida albicans [4] = assay: Antimicrobial activity against Candida albicans 901; format: functional
Candida albicans [5] = assay: Antimicrobial activity against Candida albicans 904; format: functional
Candida tropicalis [6] = assay: Antimicrobial activity against Candida tropicalis 895; format: functional
[Candida] auris [7] = Antimicrobial activity against Candida auris 919; format: functional; conditions: Candidozyma auris
Candida albicans [8] = assay: Antimicrobial activity against Candida albicans SC5314; format: functional
[Candida] auris [9] = Antimicrobial activity against Candida auris 918; format: functional; conditions: Candidozyma auris
Nakaseomyces glabratus [10] = assay: Antimicrobial activity against Candida glabrata ATCC 1182; format: functional
[11] = Hemolytic activity in human erythrocytes incubated for 1 hr; format: toxicity, cell-based, Erythrocyte; conditions: read-out: Activity
[12] = Hemolytic activity in human erythrocytes; format: toxicity, cell-based, Erythrocyte

| Compound | HC50 at 0.5 h [1] [nM] | MIC (Nakaseomyces glabratus [2]) [µg/mL] | MIC (Candida tropicalis [3]) [µg/mL] | MIC (Candida parapsilosis) [µg/mL] | MIC (Pichia kudriavzevii) [µg/mL] | MIC (Candida albicans [4]) [µg/mL] | MIC (Candida albicans [5]) [µg/mL] | MIC (Candida tropicalis [6]) [µg/mL] | MIC ([Candida] auris [7]) [µg/mL] | MIC (Candida albicans [8]) [µg/mL] | MIC ([Candida] auris [9]) [µg/mL] | MIC (Nakaseomyces glabratus [10]) [µg/mL] | hemolysis at 1 h [11] [%] | HC50 [12] [µM] |
| --- | --- | --- | --- | --- | --- | --- | --- | --- | --- | --- | --- | --- | --- | --- |
| CC(=O)N[C@@H](CCCCN)C(=O)N[C@@]1(C)CCC/C=C\CCC[C@@](C)(C(=O)N[C@@H](CCCCN)C(N)=O)NC(=O)[C@H](C)NC(=O)[C@H](CCCCN)NC(=O)[C@H](Cc2c[nH]c3ccccc23)NC1=O (Ac-K[S5]WKA[S5]K-NH2; staple (Z) 2-6) | 1400 | – | – | – | – | – | – | – | – | – | – | – | – | – |
| CC[C@H](C)[C@H](NC(=O)[C@H](CCCCN)NC(=O)[C@H](CCCCN)NC(=O)[C@@H](NC(=O)[C@]1(C)CCC/C=C\CCC[C@](C)(NC(C)=O)C(=O)N[C@@H](CC(C)C)C(=O)N[C@@H](Cc2ccccc2)C(=O)N[C@@H](CC(=O)O)C(=O)N1)[C@@H](C)CC)C(=O)N[C@@H](C)C(=O)N[C@@H](CCC(=O)O)C(=O)N[C@@H](CO)C(=O)N[C@@H](Cc1ccccc1)C(N)=O (Ac-[S5]LFD[S5]IKKIAESF-NH2; staple (Z) 1-5) | – | > 128 | > 128 | 128 (≈ 79.9 µM) | > 128 | 32 (≈ 20 µM) | > 128 | > 128 | > 128 | > 64 | > 128 | > 128 | – | – |
| CC[C@H](C)[C@H](NC(=O)[C@H](CC(=O)O)NC(=O)[C@H](Cc1ccccc1)NC(=O)[C@H](CC(C)C)NC(=O)CN)C(=O)N[C@@]1(C)CCC/C=C\CCC[C@@](C)(C(=O)N[C@@H](CCC(=O)O)C(=O)N[C@@H](CO)C(=O)N[C@@H](Cc2ccccc2)C(N)=O)NC(=O)[C@H]([C@@H](C)CC)NC(=O)[C@H](CCCCN)NC(=O)[C@H](CCCCN)NC1=O (H-GLFDI[S5]KKI[S5]ESF-NH2; staple (Z) 6-10) | – | > 128 | > 128 | > 128 | > 128 | > 128 | > 128 | > 128 | > 128 | > 64 | > 128 | > 128 | – | – |
| OC(Cn1cncn1)(Cn1cncn1)c1ccc(F)cc1F [FLUCONAZOLE] | – | > 128 | 1 (≈ 3.27 µM) | 1 (≈ 3.27 µM) | 64 (≈ 209 µM) | > 64 | > 64 | > 128 | > 128 | 0.5 (≈ 1.63 µM) | > 128 | 2 (≈ 6.53 µM) | – | – |
| CC[C@H](C)[C@@H]1NC(=O)[C@@](C)(NC(=O)[C@H](CC(=O)O)NC(=O)[C@H](Cc2ccccc2)NC(=O)[C@H](CC(C)C)NC(=O)CNC(C)=O)CCC/C=C\CCC[C@@](C)(C(=O)N[C@@H](C)C(=O)N[C@@H](CCC(=O)O)C(=O)N[C@@H](CO)C(=O)N[C@@H](Cc2ccccc2)C(N)=O)NC(=O)[C@H](CCCCN)NC(=O)[C@H](CCCCN)NC1=O (Ac-GLFD[S5]IKK[S5]AESF-NH2; staple (Z) 5-9) | – | > 128 | > 128 | > 128 | > 128 | > 128 | > 128 | 16 (≈ 10.4 µM) | > 128 | 16 (≈ 10.4 µM) | > 128 | > 128 | – | – |
| Ac-GLFDIIKKIAESF-NH2 | – | > 128 | > 128 | > 128 | > 128 | > 128 | > 128 | > 128 | > 128 | > 64 | > 128 | > 128 | – | – |
| CC(=O)N[C@@H](CCCCN)C(=O)N[C@@]1(C)CCC/C=C\CCC[C@@](C)(C(=O)N[C@@H](CCCCN)C(N)=O)NC(=O)[C@H](CC(C)C)NC(=O)[C@H](CCCCN)NC(=O)[C@H](Cc2c[nH]c3ccccc23)NC1=O (Ac-K[S5]WKL[S5]K-NH2; staple (Z) 2-6) | < 1000 | – | – | – | – | – | – | – | – | – | – | – | – | – |
| CC[C@H](C)[C@@H]1NC(=O)[C@H](CCCCN)NC(=O)[C@@](C)(NC(=O)[C@@H](NC(=O)[C@@H](NC(=O)[C@H](CC(=O)O)NC(=O)[C@H](Cc2ccccc2)NC(=O)[C@H](CC(C)C)NC(=O)CN)[C@@H](C)CC)[C@@H](C)CC)CCC/C=C\CCC[C@@](C)(C(=O)N[C@@H](CO)C(=O)N[C@@H](Cc2ccccc2)C(N)=O)NC(=O)[C@H](C)NC1=O (H-GLFDII[S5]KIA[S5]SF-NH2; staple (Z) 7-11) | – | > 128 | > 128 | > 128 | > 128 | > 128 | > 128 | > 128 | > 128 | > 64 | > 128 | > 128 | – | – |
| CC[C@H](C)[C@H](NC(=O)[C@H](CC(=O)O)NC(=O)[C@H](Cc1ccccc1)NC(=O)[C@H](CC(C)C)NC(=O)CN)C(=O)N[C@H](C(=O)N[C@@H](CCCCN)C(=O)N[C@@]1(C)CCC/C=C\CCC[C@@](C)(C(=O)N[C@@H](Cc2ccccc2)C(N)=O)NC(=O)[C@H](CCC(=O)O)NC(=O)[C@H](C)NC(=O)[C@H]([C@@H](C)CC)NC1=O)[C@@H](C)CC (H-GLFDIIK[S5]IAE[S5]F-NH2; staple (Z) 8-12) | – | > 128 | > 128 | > 128 | > 128 | > 128 | > 128 | > 128 | > 128 | > 64 | > 128 | > 128 | – | – |
| CC[C@H](C)[C@@H]1NC(=O)[C@H]([C@@H](C)CC)NC(=O)[C@@](C)(NC(=O)[C@H](Cc2ccccc2)NC(=O)[C@H](CC(C)C)NC(=O)CN)CCC/C=C\CCC[C@@](C)(C(=O)N[C@H](C(=O)N[C@@H](C)C(=O)N[C@@H](CCC(=O)O)C(=O)N[C@@H](CO)C(=O)N[C@@H](Cc2ccccc2)C(N)=O)[C@@H](C)CC)NC(=O)[C@H](CCCCN)NC1=O (H-GLF[S5]IIK[S5]IAESF-NH2; staple (Z) 4-8) | – | > 128 | > 128 | > 128 | > 128 | > 128 | > 128 | > 128 | > 128 | > 64 | > 128 | > 128 | – | – |
| CC(C)[C@@H]1NC(=O)[C@@](C)(NC(=O)[C@H](C)NC(=O)[C@H](CCCCN)NC(=O)CNC(=O)[C@H](Cc2ccccc2)NC(=O)[C@H](CCCCN)NC(=O)[C@H](CCCCN)NC(=O)[C@H](CCCCN)NC(=O)[C@H](CO)NC(=O)[C@H](Cc2cnc[nH]2)NC(=O)[C@]2(C)CCC/C=C\CCC[C@](C)(NC(=O)CN)C(=O)NCC(=O)N[C@@H](CCCCN)C(=O)N[C@@H](Cc3ccccc3)C(=O)N2)CCC/C=C\CCC[C@@](C)(C(=O)N[C@@H](C)C(=O)N[C@@H](CCCCN)C(=O)N[C@@H](CCCCN)C(N)=O)NC(=O)[C@H](CCC(=O)O)NC(=O)CNC1=O (H-G[S5]GKF[S5]HSKKKFGKA[S5]VGE[S5]AKK-NH2; staple (Z) 2-6, 16-20) | – | – | – | – | – | – | – | – | – | – | – | – | < 1 | > 400 |
| CC[C@H](C)[C@H](NC(=O)[C@H](CC(=O)O)NC(=O)[C@H](Cc1ccccc1)NC(=O)[C@H](CC(C)C)NC(=O)CNC(C)=O)C(=O)N[C@H](C(=O)N[C@@H](CCCCN)C(=O)N[C@@H](CCCCN)C(=O)N[C@@]1(C)CCC/C=C\CCC[C@@](C)(C(N)=O)NC(=O)[C@H](CO)NC(=O)[C@H](CCC(=O)O)NC(=O)[C@H](C)NC1=O)[C@@H](C)CC (Ac-GLFDIIKK[S5]AES[S5]-NH2; staple (Z) 9-13) | – | > 128 | > 128 | > 128 | > 128 | > 128 | > 128 | 32 (≈ 21.2 µM) | > 128 | > 64 | > 128 | > 128 | – | – |
| CCCC[C@@H]1NC(=O)[C@H](CCCCN)NC(=O)[C@H](Cc2c[nH]c3ccccc23)NC(=O)[C@@](C)(NC(=O)[C@@H](N)CCCCN)CCC/C=C\CCC[C@@](C)(C(=O)N[C@@H](CCCCN)C(N)=O)NC1=O (H-K[S5]WK[Nle][S5]K-NH2; staple (Z) 2-6) | 3300 | – | – | – | – | – | – | – | – | – | – | – | – | – |
| CC[C@H](C)[C@H](NC(=O)[C@H](CCCCN)NC(=O)[C@]1(C)CCC/C=C\CCC[C@](C)(NC(=O)[C@H](CC(C)C)NC(=O)CNC(C)=O)C(=O)N[C@@H](CC(=O)O)C(=O)N[C@@H]([C@@H](C)CC)C(=O)N[C@@H]([C@@H](C)CC)C(=O)N1)C(=O)N[C@@H](C)C(=O)N[C@@H](CCC(=O)O)C(=O)N[C@@H](CO)C(=O)N[C@@H](Cc1ccccc1)C(N)=O (Ac-GL[S5]DII[S5]KIAESF-NH2; staple (Z) 3-7) | – | > 128 | > 128 | > 128 | > 128 | > 128 | > 128 | > 128 | > 128 | > 64 | > 128 | > 128 | – | – |
| CC[C@H](C)[C@H](N)C(=O)N[C@@H](CC(=O)O)C(=O)N[C@@H](Cc1c[nH]c2ccccc12)C(=O)N[C@@H](CCCCN)C(=O)N[C@@H](CCCCN)C(=O)N[C@@]1(C)CCC/C=C\CCC[C@@](C)(C(=O)N[C@@H](CCCCN)C(=O)N[C@@H](CCC(N)=O)C(=O)N[C@H](C(=O)N[C@@H](CC(C)C)C(=O)O)[C@@H](C)CC)NC(=O)[C@H](C)NC(=O)[C@H](CC(=O)O)NC(=O)[C@H](CC(C)C)NC1=O (H-IDWKK[S5]LDA[S5]KQIL-OH; staple (Z) 6-10) | 12300 | – | – | – | – | – | – | – | – | – | – | – | – | – |
| CC(C)C[C@@H]1NC(=O)[C@H](CCCCN)NC(=O)[C@H](Cc2c[nH]c3ccccc23)NC(=O)[C@@](C)(NC(=O)[C@@H](N)CCCCN)CCC/C=C\CCC[C@@](C)(C(=O)N[C@@H](CCCCN)C(N)=O)NC1=O (H-K[S5]WKL[S5]K-NH2; staple (Z) 2-6) | < 1000 | – | – | – | – | – | – | – | – | – | – | – | – | – |
| CC[C@H](C)[C@H](NC(=O)CN)C(=O)N[C@@H](CCSC)C(=O)N[C@@H](CO)C(=O)N[C@@H](CO)C(=O)N[C@@H](CC(C)C)C(=O)N[C@@H](CCSC)C(=O)N[C@@H](CCCCN)C(=O)N[C@@H](CCCCN)C(=O)N[C@@H](CC(C)C)C(=O)N[C@@]1(C)CCC/C=C\CCC[C@@](C)(C(=O)N[C@@H](CCCCN)C(N)=O)NC(=O)[C@H]([C@@H](C)CC)NC(=O)[C@H](Cc2cnc[nH]2)NC(=O)[C@H](C)NC1=O (H-GIMSSLMKKL[S5]AHI[S5]K-NH2; staple (Z) 11-15) | – | – | – | – | – | – | – | – | – | – | – | – | – | 125 |
